Measurements from the CheMixHub viscosity set.
Several values for one entry are separate records, joined by “and”; a condition that tells them apart may be missing. Equal values may be shown once. ± gives the uncertainty stated by the source.

Test: xn = mol fraction of the nth substance listed

COc1ccccc1 + C1COCCO1
viscosity [mPa·s]
Conditions	293.15 K	298.15 K	303.15 K	308.15 K	313.15 K	323.15 K
101 kPa, x1 = 0.0973	–	1.154 ± 0.011	1.063 ± 0.01	0.9679 ± 0.0094	0.9021 ± 0.0089	–
101 kPa, x1 = 0.1993	–	1.136 ± 0.011	1.04 ± 0.0099	0.9633 ± 0.0093	0.8956 ± 0.0089	–
101 kPa, x1 = 0.3019	–	1.105 ± 0.01	1.021 ± 0.0097	0.9435 ± 0.0092	0.8729 ± 0.0087	–
101 kPa, x1 = 0.4003	–	1.094 ± 0.01	1.011 ± 0.0096	0.9342 ± 0.0091	0.8659 ± 0.0087	–
101 kPa, x1 = 0.4999	–	–	–	0.9209 ± 0.009	0.854 ± 0.0086	–
101 kPa, x1 = 0.5976	–	1.06 ± 0.0099	0.983 ± 0.0094	0.9122 ± 0.009	0.8465 ± 0.0086	–
101 kPa, x1 = 0.7024	–	–	0.9723 ± 0.0094	0.9001 ± 0.0089	0.8338 ± 0.0085	–
101 kPa, x1 = 0.7992	–	–	0.9564 ± 0.0092	0.8957 ± 0.0089	0.8226 ± 0.0085	–
101 kPa, x1 = 0.9003	–	1.019 ± 0.0096	0.9451 ± 0.0092	0.8765 ± 0.0087	0.8129 ± 0.0084	–
101.3 kPa, x1 = 0.1191	1.251 ± 0.15	–	1.062 ± 0.13	–	0.916 ± 0.11	0.799 ± 0.096
101.3 kPa, x1 = 0.2422	1.218 ± 0.15	–	1.037 ± 0.12	–	0.898 ± 0.11	0.785 ± 0.094
101.3 kPa, x1 = 0.3646	1.223 ± 0.15	–	1.014 ± 0.12	–	0.879 ± 0.11	0.77 ± 0.093
101.3 kPa, x1 = 0.4786	1.195 ± 0.14	–	1.018 ± 0.12	–	0.882 ± 0.11	0.76 ± 0.091
101.3 kPa, x1 = 0.6021	1.16 ± 0.14	–	0.981 ± 0.12	–	0.853 ± 0.1	0.749 ± 0.09
101.3 kPa, x1 = 0.7164	1.125 ± 0.14	–	0.965 ± 0.12	–	0.84 ± 0.1	0.738 ± 0.089
101.3 kPa, x1 = 0.8783	1.099 ± 0.13	–	0.943 ± 0.11	–	0.822 ± 0.099	0.724 ± 0.087

COc1ccccc1 + CC1COC(=O)O1
viscosity [mPa·s], 101.33 kPa
Conditions	x2 = 0.0794	x2 = 0.1323	x2 = 0.2487	x2 = 0.3578	x2 = 0.4971	x2 = 0.5795	x2 = 0.6669	x2 = 0.7278	x2 = 0.835	x2 = 0.9009
293.15 K	1.142 ± 0.013	1.199 ± 0.014	1.316 ± 0.015	1.449 ± 0.017	1.64 ± 0.019	1.773 ± 0.02	1.917 ± 0.022	2.031 ± 0.023	2.246 ± 0.025	2.406 ± 0.027
303.15 K	0.971 ± 0.011	1.013 ± 0.012	1.101 ± 0.013	1.212 ± 0.014	1.372 ± 0.016	1.479 ± 0.017	1.591 ± 0.018	1.682 ± 0.019	1.851 ± 0.021	1.978 ± 0.022
313.15 K	0.849 ± 0.01	0.889 ± 0.01	0.972 ± 0.011	1.066 ± 0.012	1.177 ± 0.013	1.26 ± 0.014	1.347 ± 0.015	1.423 ± 0.016	1.569 ± 0.018	1.671 ± 0.019

C1CCOC1 + CC#N
viscosity [mPa·s], 101 kPa
Conditions	x2 = 0.1633	x2 = 0.3052	x2 = 0.4295	x2 = 0.5394	x2 = 0.6372	x2 = 0.7249	x2 = 0.8039	x2 = 0.8754	x2 = 0.9405
298.15 K	0.4419 ± 0.011	0.4236 ± 0.011	0.4075 ± 0.011	0.3932 ± 0.01	0.3808 ± 0.0099	0.3701 ± 0.0097	0.3611 ± 0.0094	0.3539 ± 0.0092	0.3481 ± 0.0091
308.15 K	0.4066 ± 0.011	0.3875 ± 0.01	0.3701 ± 0.0097	0.355 ± 0.0093	0.3425 ± 0.009	0.3321 ± 0.0087	0.3242 ± 0.0085	0.3184 ± 0.0083	0.3145 ± 0.0082
318.15 K	0.3683 ± 0.0096	0.3497 ± 0.0091	0.334 ± 0.0087	0.3202 ± 0.0084	0.3089 ± 0.0081	0.3001 ± 0.0079	0.2938 ± 0.0077	0.2901 ± 0.0076	0.2879 ± 0.0076

CC1COC(=O)O1 (stereo not drawn) + CC#N
viscosity [mPa·s], 101.3 kPa
Conditions	x1 = 0.0418	x1 = 0.0892	x1 = 0.1438	x1 = 0.2071	x1 = 0.2815	x1 = 0.3701	x1 = 0.4776	x1 = 0.6104	x1 = 0.7791
298.15 K	0.383 ± 0.1	0.423 ± 0.1	0.479 ± 0.1	0.551 ± 0.1	0.642 ± 0.1	0.778 ± 0.1	0.968 ± 0.1	1.248 ± 0.1	1.675 ± 0.1
303.15 K	0.363 ± 0.1	0.403 ± 0.1	0.454 ± 0.1	0.521 ± 0.1	0.605 ± 0.1	0.731 ± 0.1	0.906 ± 0.1	1.161 ± 0.1	1.535 ± 0.1
308.15 K	0.347 ± 0.1	0.384 ± 0.1	0.432 ± 0.1	0.494 ± 0.1	0.575 ± 0.1	0.693 ± 0.1	0.846 ± 0.1	1.078 ± 0.1	1.42 ± 0.1
313.15 K	0.331 ± 0.1	0.367 ± 0.1	0.411 ± 0.1	0.469 ± 0.1	0.543 ± 0.1	0.654 ± 0.1	0.802 ± 0.1	1.054 ± 0.1	1.31 ± 0.1
318.15 K	0.316 ± 0.1	0.353 ± 0.1	0.397 ± 0.1	0.455 ± 0.1	0.509 ± 0.1	0.625 ± 0.1	0.76 ± 0.1	0.965 ± 0.1	1.22 ± 0.1

Cc1ccccc1 + CC#N
Conditions	viscosity [mPa·s]
298.15 K, 101.3 kPa, x1 = 0.04717	0.348 ± 0.014
298.15 K, 101.3 kPa, x1 = 0.1002	0.35 ± 0.014
298.15 K, 101.3 kPa, x1 = 0.1603	0.365 ± 0.014
298.15 K, 101.3 kPa, x1 = 0.229	0.38 ± 0.015
298.15 K, 101.3 kPa, x1 = 0.3082	0.403 ± 0.015
298.15 K, 101.3 kPa, x1 = 0.4006	0.427 ± 0.016
298.15 K, 101.3 kPa, x1 = 0.5097	0.457 ± 0.017
298.15 K, 101.3 kPa, x1 = 0.6406	0.487 ± 0.018
298.15 K, 101.3 kPa, x1 = 0.8004	0.527 ± 0.019
298.17 K, 100 kPa, x2 = 0.5	0.4526 ± 0.0097
298.19 K, 100 kPa, x2 = 0.25	0.5085 ± 0.011
303 K, 100 kPa, x2 = 0.126	0.5031 ± 0.051
303 K, 100 kPa, x2 = 0.2324	0.4911 ± 0.049
303 K, 100 kPa, x2 = 0.3293	0.4787 ± 0.048
303 K, 100 kPa, x2 = 0.4233	0.4725 ± 0.048
303 K, 100 kPa, x2 = 0.5023	0.4621 ± 0.046
303 K, 100 kPa, x2 = 0.6588	0.4355 ± 0.044
303 K, 100 kPa, x2 = 0.7316	0.4231 ± 0.043
303 K, 100 kPa, x2 = 0.876	0.4007 ± 0.04
308 K, 100 kPa, x2 = 0.126	0.4825 ± 0.049
308 K, 100 kPa, x2 = 0.2324	0.4755 ± 0.048
308 K, 100 kPa, x2 = 0.3293	0.4625 ± 0.047
308 K, 100 kPa, x2 = 0.4233	0.4525 ± 0.046
308 K, 100 kPa, x2 = 0.5023	0.4436 ± 0.045
308 K, 100 kPa, x2 = 0.6588	0.4166 ± 0.042
308 K, 100 kPa, x2 = 0.7316	0.4038 ± 0.041
308 K, 100 kPa, x2 = 0.876	0.3715 ± 0.037
308.15 K, 101 kPa, x1 = 0.1038	0.3334 ± 0.0079
308.15 K, 101 kPa, x1 = 0.2993	0.3692 ± 0.0085
308.15 K, 101 kPa, x1 = 0.3885	0.3887 ± 0.0089
308.15 K, 101 kPa, x1 = 0.5986	0.424 ± 0.0094
308.15 K, 101 kPa, x1 = 0.6907	0.4457 ± 0.0098
308.15 K, 101 kPa, x1 = 0.7946	0.4617 ± 0.01
308.15 K, 101 kPa, x1 = 0.8925	0.4789 ± 0.01
308.15 K, 101.3 kPa, x1 = 0.04717	0.309 ± 0.013
308.15 K, 101.3 kPa, x1 = 0.1002	0.309 ± 0.013
308.15 K, 101.3 kPa, x1 = 0.1603	0.33 ± 0.013
308.15 K, 101.3 kPa, x1 = 0.3082	0.375 ± 0.015
308.15 K, 101.3 kPa, x1 = 0.4006	0.389 ± 0.015
308.15 K, 101.3 kPa, x1 = 0.5097	0.421 ± 0.016
308.15 K, 101.3 kPa, x1 = 0.6406	0.434 ± 0.016
308.15 K, 101.3 kPa, x1 = 0.8004	0.45 ± 0.017
313 K, 100 kPa, x2 = 0.126	0.4655 ± 0.047
313 K, 100 kPa, x2 = 0.2324	0.4551 ± 0.046
313 K, 100 kPa, x2 = 0.3293	0.4425 ± 0.045
313 K, 100 kPa, x2 = 0.4233	0.4311 ± 0.043
313 K, 100 kPa, x2 = 0.5023	0.4179 ± 0.042
313 K, 100 kPa, x2 = 0.6588	0.4006 ± 0.04
313 K, 100 kPa, x2 = 0.7316	0.3878 ± 0.039
313 K, 100 kPa, x2 = 0.876	0.3512 ± 0.035
323.05 K, 100 kPa, x2 = 0.75	0.308 ± 0.0066
323.08 K, 100 kPa, x2 = 0.25	0.3879 ± 0.0083
323.09 K, 100 kPa, x2 = 0.5	0.3497 ± 0.0075

CC(=O)C1CCOC1=O (stereo not drawn) + CC(=O)C1CC1
101.3 kPa
Conditions	viscosity [mPa·s]
303.15 K, x2 = 0.0998	3.195 ± 0.068
313.15 K, x2 = 0.3004	1.945 ± 0.042

c1ccc2ccccc2c1 + CC(=O)O
viscosity
Conditions	303.15 K	308.15 K	313.15 K	318.15 K	323.15 K
101 kPa, x1 = 0.06774	1.187 ± 0.03 mPa·s	1.093 ± 0.028 mPa·s	1.01 ± 0.025 mPa·s	0.9386 ± 0.024 mPa·s	0.8751 ± 0.022 mPa·s
101 kPa, x1 = 0.116	–	1.108 ± 0.028 mPa·s	1.024 ± 0.026 mPa·s	0.951 ± 0.024 mPa·s	0.8838 ± 0.022 mPa·s
101.33 kPa, x1 = 0.06774	1.187 ± 0.0083 mPa·s	1.093 ± 0.0077 mPa·s	1.01 ± 0.0071 mPa·s and 1.01 ± 0.027 mPa·s	0.9386 ± 0.0066 mPa·s	0.8751 ± 0.0061 mPa·s
101.33 kPa, x1 = 0.08923	–	–	1.023 ± 0.027 mPa·s	–	–
101.33 kPa, x1 = 0.116	–	–	1.024 ± 0.027 mPa·s	–	–
101.33 kPa, x1 = 0.12	–	1.108 ± 0.0078 mPa·s	1.024 ± 0.0072 mPa·s	0.951 ± 0.0067 mPa·s	0.8838 ± 0.0062 mPa·s
101.33 kPa, x1 = 0.1443	–	–	1.049 ± 0.028 mPa·s	–	–
